Test results published in US20260171190A1, “ASSESSMENT OF GR CELLULAR SIGNALING PATHWAY ACTIVITY USING MATHEMATICAL MODELLING OF TARGET GENE EXPRESSION” (priority 2021, published 2026).
Read-outs that look alike come from different tables or passages of the source.

Test system: GR cellular signaling pathway
Method: Triple Negative Breast cancer cell line (MDA-MB-231) treated for 4, 8, 12 hrs with vehicle, 100 nM dexamethasone, 100 nM dexamethasone and 100 nM mifrepristone (GCR antagonist), or 100 nM dexamethasone and 100 nM CORT108297 (GCR antagonist).
GR pathway activity scores are presented on a normalized 0-100 scale.

CCOC[C@]12Cc3cnn(-c4ccc(F)cc4)c3C=C1CCN(S(=O)(=O)c1ccc(C(F)(F)F)cc1)C2 [CORT108297]
antagonism of the dexamethasone effect on GR pathway activity (MDA-MB-231, 100 nM dexamethasone and 100 nM antagonist, 4, 8, 12 hrs): minimally effective

CC#C[C@]1(O)CC[C@H]2[C@@H]3CCC4=CC(=O)CCC4=C3[C@@H](c3ccc(N(C)C)cc3)C[C@@]21C [Mifrepristone]
antagonism of the dexamethasone effect on GR pathway activity: strong dexamethasone antagonist
